Data published in patent US7605168B2 (Plexxikon, Inc., priority 2004, dated 2009).

Experiments:
[1] = molecular target: T1, PDE4D5: full-length human PDE4D5 isozyme (Homo sapiens, UniProt Q08499); experiment: PDE4 IC50 determination by Scintillation Proximity Assay (SPA), full-length PDE4D5; assay type: biochemical; conditions: cell lysate, [3H]cAMP SPA
T1 construct: made in house; host or cells: baculovirus infected insect cells (pFastBacHT)
Summary of the method: (§1)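 Unpurified enzyme from cell lysates (PDE4B2 2.5 μl, PDE4D5 0.083 μl of 50% glycerol stock/ml) hydrolysing [3H]cAMP in 50 mM Tris pH 7.5, 8.3 mM MgCl, 1.7 mM EGTA, 0.01% BSA, 30 min at 30 °C. Stopped with yttrium silicate SPA beads in 18 mM ZnSO4; bead-bound [3H]AMP counted. IC50 by non-linear regression.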

[2] = molecular target: T2, PDE4B: catalytic domain of human PDE4B from S152-S528 (Homo sapiens, UniProt Q07343); experiment: PDE4 IC50 determination by Scintillation Proximity Assay (SPA), PDE4B catalytic domain; assay type: biochemical; conditions: [3H]cAMP SPA, 30 min at 30° C.
T2 construct: The catalytic domain of human PDE4B from S152-S528; His6 (N, cleaved yes); thrombin cleavage site (N, cleaved yes); made in house; host or cells: E. coli BL21 (DE3) RIL
T2 sequence (Q07343 324-700): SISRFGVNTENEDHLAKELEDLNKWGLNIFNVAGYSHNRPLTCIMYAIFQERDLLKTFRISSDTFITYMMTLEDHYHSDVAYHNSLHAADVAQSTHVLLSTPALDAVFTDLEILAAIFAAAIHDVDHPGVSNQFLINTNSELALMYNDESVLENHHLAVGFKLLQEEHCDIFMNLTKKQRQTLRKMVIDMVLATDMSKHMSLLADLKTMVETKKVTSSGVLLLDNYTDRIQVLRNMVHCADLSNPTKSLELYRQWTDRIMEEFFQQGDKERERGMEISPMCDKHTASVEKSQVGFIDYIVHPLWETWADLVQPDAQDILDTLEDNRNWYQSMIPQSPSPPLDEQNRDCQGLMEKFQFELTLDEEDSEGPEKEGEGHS
Summary of the method: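 Human PDE4B catalytic domain (80 ng/ml) hydrolysed [3H]cAMP in 50 mM Tris pH 7.5, 8.3 mM MgCl, 1.7 mM EGTA, 0.01% BSA for 30 min at 30 °C. Reaction was stopped with yttrium silicate SPA beads in 18 mM ZnSO4, and bound [3H]AMP was counted by scintillation. IC50 came from non-linear regression.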

[3] = molecular target: T3, PDE4B2: full-length human PDE4B2 isozyme (Homo sapiens, UniProt Q07343); experiment: PDE4 IC50 determination by Scintillation Proximity Assay (SPA), full-length PDE4B2; assay type: biochemical; conditions: cell lysate, [3H]cAMP SPA
T3 construct: made in house; host or cells: baculovirus infected insect cells (pFastBacHT)
T3 sequence (Q07343 with tags, fused parts or gaps isoform Q07343-2): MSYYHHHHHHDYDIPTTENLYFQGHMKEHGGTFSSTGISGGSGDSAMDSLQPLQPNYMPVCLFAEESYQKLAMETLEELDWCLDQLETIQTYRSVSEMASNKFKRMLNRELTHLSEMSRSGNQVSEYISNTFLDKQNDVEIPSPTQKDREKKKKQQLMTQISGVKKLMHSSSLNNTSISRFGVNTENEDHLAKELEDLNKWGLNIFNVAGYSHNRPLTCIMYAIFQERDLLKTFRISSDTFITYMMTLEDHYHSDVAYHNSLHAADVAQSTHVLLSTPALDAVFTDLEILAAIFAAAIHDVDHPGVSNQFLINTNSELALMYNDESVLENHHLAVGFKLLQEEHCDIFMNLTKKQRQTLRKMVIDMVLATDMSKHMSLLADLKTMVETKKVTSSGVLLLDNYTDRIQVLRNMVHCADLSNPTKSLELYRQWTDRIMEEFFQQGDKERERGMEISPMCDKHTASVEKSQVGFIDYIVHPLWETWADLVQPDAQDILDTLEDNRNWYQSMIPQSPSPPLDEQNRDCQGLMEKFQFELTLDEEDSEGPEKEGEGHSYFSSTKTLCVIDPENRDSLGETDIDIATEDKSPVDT
Summary of the method: as §1

[4] = test system: TNF-α release from whole blood cultures stimulated with LPS; experiment: IC50 by TNF alpha production upon stimulation of whole blood cultures with LPS; assay type: cell-based; conditions: human whole blood (buffy coat) culture, 100 ng/ml LPS, 4 hours; read-out: h TNFα IC50
Summary of the method: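 Human buffy coat, diluted with 7 volumes of RPMI/2.5% heat-inactivated FBS, was preincubated with compound (8-point 1:3 series) for 1 h at 37 °C. It was then stimulated with 100 ng/ml LPS (final) for 4 h. Supernatant TNF-α was measured by sandwich ELISA at 450 nm, and IC50 was set between DMSO (0%) and PDE4-inhibitor (100%) controls.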

[5] = molecular target: T4, PDE4D: catalytic domain S316-V692 (Homo sapiens, UniProt Q08499); experiment: PDE4 IC50 determination by Scintillation Proximity Assay (SPA), PDE4D catalytic domain; assay type: biochemical; conditions: [3H]cAMP SPA, 30 min at 30° C.
T4 construct: pET15S PDE4D S316-V692-X; His6 (N, cleaved yes); thrombin cleavage site (N, cleaved yes); made in house; host or cells: E. coli BL21 (DE3) RIL
T4 sequence (Q08499 380-756): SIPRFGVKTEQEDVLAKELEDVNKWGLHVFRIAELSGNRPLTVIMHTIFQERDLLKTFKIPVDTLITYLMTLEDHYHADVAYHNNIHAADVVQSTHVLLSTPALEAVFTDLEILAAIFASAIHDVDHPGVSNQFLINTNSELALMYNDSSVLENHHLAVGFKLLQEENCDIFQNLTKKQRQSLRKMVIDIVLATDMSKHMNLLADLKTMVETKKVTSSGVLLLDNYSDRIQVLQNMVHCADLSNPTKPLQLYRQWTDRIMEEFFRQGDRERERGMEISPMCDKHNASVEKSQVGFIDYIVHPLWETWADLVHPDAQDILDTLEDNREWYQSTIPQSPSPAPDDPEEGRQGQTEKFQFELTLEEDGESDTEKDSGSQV
Protocol: IC50s were determined by Scintillation Proximity Assay (SPA). The principle of the assay is based on the fact that cAMP, the PDE4 substrate, binds weakly to Yittrium Silicate SPA beads, whereas AMP, the product of PDE4 hydrolysis binds strongly. Thus, the extent of PDE4 hydrolysis of a sample of [^3H]cAMP can be measured because only the [^3H]AMP produced by PDE4 hydrolysis will bind to the SPA beads and produce a scintillation signal.
[…] Enzyme was stored in 50% glycerol at −20°. See Example 144.
Compounds tested (see Tables 5 for compounds and results) were 3-fold serially diluted 11 times in DMSO from a starting concentration of 4 mM or 40 μM, depending on compound potency. 1 μl of each dilution was transferred into duplicate wells of a white polystyrene 384-well assay plate (Corning #3710). In addition to the compound dilutions, each assay plate contained control wells with 1 μl of DMSO (to define 0% enzyme inhibition) or 1 μl of 200 μM roflumilast (to define 100% enzyme inhibition). Using a Beckman FX robot, 10 μl of [^3H] cAMP (Amersham TRK559) at […] in assay buffer (50 mM Tris, pH 7.5; 8.3 mM MgCl; 1.7 mM EGTA; 0.01% BSA) was transferred to each assay well. Next, 10 μl of PDE4 enzyme in assay buffer was added and the plates were shaken for 30 s. at 1000 rpm to start the cAMP hydrolysis reaction. The concentrations of enzyme used were: PDE4B, 80 ng/ml; PDE4D, 4 ng/ml; PDE4B2, 2.5 μl of 50% glycerol stock/ml; PDE4D5 0.083 μl of 50% glycerol stock/ml. Assay plates were covered and incubated for 30 min. at 30° C. Reactions were stopped by robotic addition of 10 μl of 5 mg/ml SPA beads (Amersham RPNQ0013) in 18 mM ZnSO4. The assay plates were covered with clear plastic film, centrifuged for 1 min. at 1000 RPM to settle the SPA beads, and counted using a Wallac TriLux scintillation counter. IC50's were calculated from the raw assay data by non-linear regression curve fitting using the Assay Explorer software package from MDL.

T1 sequence (Q08499 with tags, fused parts or gaps isoform Q08499-6): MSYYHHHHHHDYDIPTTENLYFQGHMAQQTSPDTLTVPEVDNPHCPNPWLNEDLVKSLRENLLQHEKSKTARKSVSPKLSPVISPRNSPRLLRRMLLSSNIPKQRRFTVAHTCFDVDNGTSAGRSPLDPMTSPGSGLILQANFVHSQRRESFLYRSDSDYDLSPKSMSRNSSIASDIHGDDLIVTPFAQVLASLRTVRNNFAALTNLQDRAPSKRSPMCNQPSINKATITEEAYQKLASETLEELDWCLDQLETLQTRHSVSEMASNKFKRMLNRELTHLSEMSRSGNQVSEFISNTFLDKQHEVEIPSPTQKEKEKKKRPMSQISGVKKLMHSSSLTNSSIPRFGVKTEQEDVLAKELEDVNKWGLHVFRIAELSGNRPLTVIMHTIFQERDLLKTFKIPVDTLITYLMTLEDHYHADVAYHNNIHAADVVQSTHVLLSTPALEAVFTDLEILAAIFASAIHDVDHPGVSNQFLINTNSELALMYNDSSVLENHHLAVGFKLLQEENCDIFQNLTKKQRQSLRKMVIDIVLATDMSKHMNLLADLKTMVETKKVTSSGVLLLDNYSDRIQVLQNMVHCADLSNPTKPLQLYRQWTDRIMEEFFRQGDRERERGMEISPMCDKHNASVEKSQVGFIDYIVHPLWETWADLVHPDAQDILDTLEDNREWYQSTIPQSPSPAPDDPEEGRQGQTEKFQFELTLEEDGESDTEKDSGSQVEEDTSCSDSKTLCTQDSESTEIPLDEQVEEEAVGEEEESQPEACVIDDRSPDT

**Q.** For COc1ccc(-c2cn(C(=O)c3ccc4c(OC(C)=O)cccc4c3)c3ncccc23)cc1OC [Compound 62, Acetic acid 6-[3-(3,4-dimethoxy-phenyl)-pyrrolo[2,3-b]pyridine-1-carbonyl]-naphthalen-1-yl ester-amide], which IC50 [1] is on record?
**A.** < 10 µM

**Q.** What about the IC50 [2] of the same molecule?
**A.** < 10 µM

**Q.** And the IC50 [3]?
**A.** < 10 µM

**Q.** What about the IC50 [4] of the same molecule?
**A.** ≤ 10 µM

**Q.** And the IC50 [5]?
**A.** ≤ 10 µM

**Q.** Which results are given for CCCOc1ccccc1C(=O)n1cc(-c2ccc(OC)c(OC)c2)c2cccnc21 [Compound 113, [3-(3,4-Dimethoxy-phenyl)-pyrrolo[2,3-b]pyridin-1-yl]-(2-propoxy-phenyl)-methanone]?
**A.** IC50 [1]: < 10 µM; IC50 [2]: < 10 µM; IC50 [3]: < 10 µM; IC50 [4]: ≤ 10 µM; IC50 [5]: ≤ 10 µM

**Q.** With COc1ccc(-c2cn(S(=O)(=O)c3cccc4cccnc34)c3ccccc23)cc1OC1CCCC1 [Compound 100, 8-[3-(3-Cyclopentyloxy-4-methoxy-phenyl)-indole-1-sulfonyl]-quinoline] as the molecule, how does the IC50 [1] read?
**A.** < 10 µM

**Q.** What about the IC50 [2] of the same molecule?
**A.** < 10 µM

**Q.** And the IC50 [3]?
**A.** < 10 µM

**Q.** What about the IC50 [4] of the same molecule?
**A.** ≤ 10 µM

**Q.** And the IC50 [5]?
**A.** ≤ 10 µM

**Q.** Which results are given for COc1ccc(-c2cn(S(=O)(=O)Cc3cccc([N+](=O)[O-])c3)c3ncccc23)cc1OC [Compound 18, 3-(3,4-dimethoxy-phenyl)-1-(3-nitro-phenylmethanesulfonyl)-1H-pyrrolo[2,3-b]pyridine]?
**A.** IC50 [1]: < 10 µM; IC50 [2]: < 10 µM; IC50 [3]: < 10 µM; IC50 [4]: ≤ 10 µM; IC50 [5]: ≤ 10 µM

**Q.** Which IC50 [1] does the source give for COc1ccc(-c2cn(C(=O)c3cccc4c(OC)cccc34)c3ncccc23)cc1OC [Compound 65, [3-(3,4-Dimethoxy-phenyl)-pyrrolo[2,3-b]pyridin-1-yl]-(5-methoxynaphthalen-1-yl)-methanone] here?
**A.** < 10 µM

**Q.** And the IC50 [2]?
**A.** < 10 µM

**Q.** And the IC50 [3]?
**A.** < 10 µM

**Q.** And the IC50 [4]?
**A.** ≤ 10 µM

**Q.** What about the IC50 [5] of the same molecule?
**A.** ≤ 10 µM

**Q.** COc1ccc(-c2cn(S(=O)(=O)c3cccc4cc(C)cnc34)c3ccc(Cl)cc23)cc1OC1CCCC1 [Compound 95, 8-[5-Chloro-3-(3-cyclopentyloxy-4-methoxy-phenyl)-indole-1-sulfonyl]-3-methyl-quinoline] was tested. Which IC50 [1] did it give?
**A.** < 10 µM

**Q.** What about the IC50 [2] of the same molecule?
**A.** < 10 µM

**Q.** What about the IC50 [3] of the same molecule?
**A.** < 10 µM

**Q.** What about the IC50 [4] of the same molecule?
**A.** ≤ 10 µM

**Q.** And the IC50 [5]?
**A.** ≤ 10 µM

**Q.** What does the source list for COc1ccc(-c2cn(S(=O)(=O)c3cccc4cccnc34)c3ncccc23)cc1OC1CCCC1 [Compound 102, 8-[3-(3-Cyclopentyloxy-4-methoxy-phenyl)-pyrrolo[2,3-b]pyridine-1-sulfonyl]-quinoline]?
**A.** IC50 [1]: < 10 µM; IC50 [2]: < 10 µM; IC50 [3]: < 10 µM; IC50 [4]: ≤ 10 µM; IC50 [5]: ≤ 10 µM

**Q.** How did the IC50 [1] turn out when COc1ccc(-c2cn(C(=O)c3cc(C)nc4ccccc34)c3ncccc23)cc1OC [Compound 116, [3-(3,4-Dimethoxy-phenyl)-pyrrolo[2,3-b]pyridin-1-yl]-(2-methyl-quinolin-4-yl)-methanone] was run?
**A.** < 10 µM

**Q.** And the IC50 [2]?
**A.** < 10 µM

**Q.** What about the IC50 [3] of the same molecule?
**A.** < 10 µM

**Q.** And the IC50 [4]?
**A.** ≤ 10 µM

**Q.** And the IC50 [5]?
**A.** ≤ 10 µM

**Q.** With COc1cccc(NC(=O)n2cc(-c3ccc(OC)c(OC)c3)c3cccnc32)c1 [Compound 32, 3-(3,4-Dimethoxy-phenyl)-pyrrolo[2,3-b]pyridine-1-carboxylic acid (3-methoxy-phenyl)-amide] as the molecule, how does the IC50 [1] read?
**A.** < 10 µM

**Q.** What about the IC50 [2] of the same molecule?
**A.** < 10 µM

**Q.** What about the IC50 [3] of the same molecule?
**A.** < 10 µM

**Q.** And the IC50 [4]?
**A.** > 10 µM

**Q.** What about the IC50 [5] of the same molecule?
**A.** ≤ 10 µM

**Q.** For COc1ccc(-c2c[nH]c3ncccc23)cc1OC [Compound 1, 3-(3,4-dimethoxy-phenyl)-1H-pyrrolo[2,3-b]pyridine], which IC50 [1] is on record?
**A.** < 10 µM

**Q.** And the IC50 [2]?
**A.** < 10 µM

**Q.** What about the IC50 [3] of the same molecule?
**A.** < 10 µM

**Q.** And the IC50 [4]?
**A.** ≤ 10 µM

**Q.** What about the IC50 [5] of the same molecule?
**A.** ≤ 10 µM

**Q.** What does the source list for COc1ccc(-c2c[nH]c3ncccc23)cc1OC1CCCC1 [Compound 88, 3-(3-Cyclopentyloxy-4-methoxy-phenyl)-1H-pyrrolo[2,3-b]pyridine]?
**A.** IC50 [1]: < 10 µM; IC50 [2]: < 10 µM; IC50 [3]: < 10 µM; IC50 [4]: ≤ 10 µM; IC50 [5]: ≤ 10 µM

**Q.** With COc1ccc(-c2cn(C(=O)Nc3ccc4c(c3)OCO4)c3ncccc23)cc1OC [Compound 36, 3-(3,4-Dimethoxy-phenyl)-pyrrolo[2,3-b]pyridine-1-carboxylic acidbenzo[1,3]dioxol-5-ylamide] as the molecule, how does the IC50 [1] read?
**A.** < 10 µM

**Q.** And the IC50 [2]?
**A.** < 10 µM

**Q.** What about the IC50 [3] of the same molecule?
**A.** < 10 µM

**Q.** And the IC50 [4]?
**A.** > 10 µM

**Q.** What about the IC50 [5] of the same molecule?
**A.** ≤ 10 µM

**Q.** With COc1ccc(-c2cn(S(=O)(=O)c3cc(C)cc4cccnc34)c3ncccc23)cc1OC [Compound 24] as the molecule, how does the IC50 [1] read?
**A.** < 10 µM

**Q.** And the IC50 [2]?
**A.** < 10 µM

**Q.** What about the IC50 [3] of the same molecule?
**A.** < 10 µM

**Q.** What about the IC50 [4] of the same molecule?
**A.** ≤ 10 µM

**Q.** What about the IC50 [5] of the same molecule?
**A.** ≤ 10 µM

**Q.** With COc1ccc(-c2cn(S(=O)(=O)c3ccccc3)c3ncccc23)cc1OC [Compound 5, 1-benzenesulfonyl-3-(3,4-dimethoxy-phenyl)-1H-pyrrolo[2,3-b]pyridine] as the molecule, how does the IC50 [1] read?
**A.** < 10 µM

**Q.** And the IC50 [2]?
**A.** < 10 µM

**Q.** And the IC50 [3]?
**A.** < 10 µM

**Q.** What about the IC50 [4] of the same molecule?
**A.** ≤ 10 µM

**Q.** What about the IC50 [5] of the same molecule?
**A.** ≤ 10 µM

**Q.** For COc1ccc(-c2cn(C(=O)c3cccnc3)c3ncccc23)cc1OC [Compound 56, [3-(3,4-Dimethoxy-phenyl)-pyrrolo[2,3-b]pyridin-1-yl]-(3-pyridylyl)-methanone-amide], which IC50 [1] is on record?
**A.** < 10 µM

**Q.** And the IC50 [2]?
**A.** < 10 µM

**Q.** What about the IC50 [3] of the same molecule?
**A.** < 10 µM

**Q.** What about the IC50 [4] of the same molecule?
**A.** ≤ 10 µM

**Q.** And the IC50 [5]?
**A.** ≤ 10 µM

**Q.** What does the source list for COc1ccc(-c2ccnc3[nH]ccc23)cc1OC [Compound 50, 4-(3,4-Dimethoxy-phenyl)-1H-pyrrolo[2,3-b]pyridine]?
**A.** IC50 [1]: < 10 µM; IC50 [2]: < 10 µM; IC50 [3]: < 10 µM; IC50 [4]: ≤ 10 µM; IC50 [5]: ≤ 10 µM

**Q.** Which IC50 [1] does the source give for COc1ccc(-c2cn(Cc3cccc([N+](=O)[O-])c3)c3ncccc23)cc1OC [Compound 53, 3-(3,4-Dimethoxy-phenyl)-1-(3-nitro-benzyl)-1H-pyrrolo[2,3-b]pyridine] here?
**A.** < 10 µM

**Q.** What about the IC50 [2] of the same molecule?
**A.** < 10 µM

**Q.** What about the IC50 [3] of the same molecule?
**A.** < 10 µM

**Q.** What about the IC50 [4] of the same molecule?
**A.** ≤ 10 µM

**Q.** What about the IC50 [5] of the same molecule?
**A.** ≤ 10 µM
